Source: paper PMC8574157 (Journal of chemical information and modeling, 2021)
Read-outs that look alike come from different tables or passages of the source.

What was measured:
in vitro = settings: human
YFV 17D strain = test: microbe, parasite or virus in culture; assay type: cell-based, yellow fever virus
polymerase for YFV = polymerase for YFV (Yellow fever virus, UniProt P03314); assay type: biochemical
protease for YFV = protease for YFV (Yellow fever virus, UniProt P03314); assay type: biochemical
Chain of protease for YFV (P03314 1485-2107 limits assumed): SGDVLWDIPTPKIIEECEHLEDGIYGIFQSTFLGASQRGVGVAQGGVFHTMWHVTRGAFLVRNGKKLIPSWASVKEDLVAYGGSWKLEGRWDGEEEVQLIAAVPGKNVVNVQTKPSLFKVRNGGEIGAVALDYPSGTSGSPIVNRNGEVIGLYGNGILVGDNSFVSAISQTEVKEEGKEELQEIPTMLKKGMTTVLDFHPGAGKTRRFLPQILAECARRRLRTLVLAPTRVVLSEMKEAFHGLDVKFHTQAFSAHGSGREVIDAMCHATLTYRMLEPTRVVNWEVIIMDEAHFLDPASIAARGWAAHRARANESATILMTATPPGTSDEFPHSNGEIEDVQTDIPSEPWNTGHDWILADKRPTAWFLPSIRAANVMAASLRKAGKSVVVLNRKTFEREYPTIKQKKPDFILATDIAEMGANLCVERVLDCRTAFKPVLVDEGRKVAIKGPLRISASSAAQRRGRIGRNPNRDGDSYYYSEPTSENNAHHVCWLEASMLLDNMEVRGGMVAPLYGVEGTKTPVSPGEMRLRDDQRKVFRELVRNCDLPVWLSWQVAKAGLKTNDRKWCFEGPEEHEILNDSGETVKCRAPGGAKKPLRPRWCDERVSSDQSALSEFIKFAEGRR
Chain of protease for YFV (P03314 1355-1484 partner limits assumed): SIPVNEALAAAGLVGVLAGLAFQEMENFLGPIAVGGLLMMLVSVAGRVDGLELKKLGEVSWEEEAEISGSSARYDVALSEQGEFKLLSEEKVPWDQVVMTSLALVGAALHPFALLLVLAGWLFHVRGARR

[1] = Yellow fever virus, Huh-7, read-out: EC50 (Neutral Red)
[2] = Yellow fever virus, Huh-7, read-out: EC50 (Visual)

Chain of polymerase for YFV (P03314 2507-3411 limits assumed): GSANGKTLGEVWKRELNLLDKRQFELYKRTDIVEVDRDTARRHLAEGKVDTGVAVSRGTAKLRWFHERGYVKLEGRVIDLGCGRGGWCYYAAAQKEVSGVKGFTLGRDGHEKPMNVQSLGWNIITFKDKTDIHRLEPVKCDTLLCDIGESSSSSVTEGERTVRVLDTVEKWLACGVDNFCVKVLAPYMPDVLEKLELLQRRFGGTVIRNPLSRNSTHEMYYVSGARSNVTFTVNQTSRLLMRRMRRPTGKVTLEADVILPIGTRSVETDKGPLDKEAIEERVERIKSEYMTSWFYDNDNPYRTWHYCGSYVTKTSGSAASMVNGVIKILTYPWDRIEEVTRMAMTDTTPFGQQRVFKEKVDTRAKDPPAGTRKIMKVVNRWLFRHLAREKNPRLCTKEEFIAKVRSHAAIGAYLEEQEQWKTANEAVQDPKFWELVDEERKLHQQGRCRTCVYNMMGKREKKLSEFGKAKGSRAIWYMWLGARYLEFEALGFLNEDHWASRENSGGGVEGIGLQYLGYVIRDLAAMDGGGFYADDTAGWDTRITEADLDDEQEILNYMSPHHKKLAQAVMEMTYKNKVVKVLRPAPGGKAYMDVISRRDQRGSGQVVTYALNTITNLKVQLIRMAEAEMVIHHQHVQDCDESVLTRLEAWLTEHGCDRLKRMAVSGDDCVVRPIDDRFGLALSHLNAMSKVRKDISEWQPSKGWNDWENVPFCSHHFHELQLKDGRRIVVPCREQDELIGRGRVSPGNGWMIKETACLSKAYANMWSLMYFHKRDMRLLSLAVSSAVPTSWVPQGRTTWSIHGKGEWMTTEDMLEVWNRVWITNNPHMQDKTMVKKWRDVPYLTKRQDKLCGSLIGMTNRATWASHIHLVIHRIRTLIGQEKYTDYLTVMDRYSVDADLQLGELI

Compound | CC50 (in vitro; CC50 (Neutral Red)) [µM] | CC50 (in vitro; CC50 (Visual)) [µM] | EC50 (YFV 17D strain; [1]) [µM] | EC50 (YFV 17D strain; [2]) [µM] | activity against the polymerase for YFV (polymerase for YFV) | activity against the protease for YFV (protease for YFV) | EC50 (YFV 17D strain; read-out: EC50 (Neutral Red)) [µM] | EC50 (YFV 17D strain; read-out: EC50 (Visual)) [µM]
CCn1nc(C(=O)O)c(=O)c2cc3c(cc21)OCO3 [Cinoxacin] | > 100 | > 100 | > 100 | > 100 |  |  |  | 
O=C1[C@H](CC[C@H](O)c2ccc(F)cc2)[C@@H](c2ccc(O)cc2)N1c1ccc(F)cc1 [Ezetimibe] | 29 | 32 | > 29 | > 32 |  |  |  | 
Fc1ccc([C@@H]2CCNC[C@H]2COc2ccc3c(c2)OCO3)cc1 [Paroxetine] | 3.1 | 3.2 | > 3.1 | > 3.2 |  |  |  | 
Oc1ccc(-c2nc(-c3ccncc3)c(-c3ccc(F)cc3)[nH]2)cc1 [SB202190] | > 100 | > 100 | > 100 | > 100 |  |  |  | 
N-{4-cyano-5-[(4-fluorophenyl)amino]-1H-pyrazol-3-yl}naphthalene-2-sulfonamide [Compound 11626003] |  |  |  |  | not active | not active | 3.3 | 3.2
